# Measured values taken from US11415579B2, “Assay for measuring a rate of reaction between a target and a ligand candidate” (Imperial College Innovations Ltd., priority 2016, dated 2022).
# Key:
# Cdk2(C177A, F80C) = biological target: T1, Cdk2(C177A, F80C) (Homo sapiens, UniProt P24941, C177A/F80C); experiment: Kinetic thiol consumption assay with Cdk2 mutant F80C, incl. kobs versus concentration (Kd, k2); format: binding; design: key to Rate enhancement, Cdk2 F80C: Cdk2 rate constant divided by model-thiol rate constant; conditions: additional mutation C177A; for Rate constant with Cdk2 F80C: Protein: Cdk2, cysteine position F80C, in h^-1
# T1 construct: poly-histidine; made in house; host or cells: E. coli
# Protocol: Therefore the assay can be used to calculate both k2 and Kd by experimentally determining kobs at a suitable range of ligand candidate concentrations. Typically Kd and k2 would then be determined by fitting a hyperbolic curve to a plot of kobs against ligand candidate concentration (FIG. 9).
# (§1) To wells containing 150 μL thiol (Cdk2 or model thiol) (5 μM) in degassed phosphate buffer (pH 8) was added immobilized TCEP beads (2% v/v).
# (§2) After incubation of the fluorescence plates for 1 hour at room temperature, fluorescence measurements (excitation/emission of 380/470 nm) were taken on a PerkinElmer EnVision multilabel plate reader and processed with EnVision Workstation version 1.12.
# (§3) Fluorescence measurements were normalized against a DMSO/thiol only control and plotted against time.
# (§4) Rate constants were calculated using GraphPad software Prism version 6 by fitting a first order exponential decay to the data. The rate constant for each acrylamide with Cdk2 was divided by the rate constant for that fragment with the model thiol to provide the rate enhancement for each ligand candidate.
# (§5) A further set of set of additional Cdk2 mutants were screened, all containing the C177A mutation and therefore with only one cysteine on the surface: • F80C (without the K278C mutation) • H71C • S276C • N272 • T182C • R122C • S181C
# (§6) Mutations were introduced by site-directed mutagenesis and the resulting cDNA was cloned into the pRSETA bacterial expression vector to generate a poly-histidine tagged Cdk2 fusion that was purified from E. coli using standard techniques.
# Rate constants were calculated as described in the methodology section of Examples 1 and 2.
# Cdk2(S181C) (C177A) = biological target: T2, Cdk2(S181C) (C177A) (Homo sapiens, UniProt P24941, C177A/S181C); experiment: Kinetic thiol consumption assay with Cdk2 mutant S181C; format: binding; design: key to Rate enhancement, Cdk2 S181C: rate constant with Cdk2 ÷ rate constant with model thiol (fold); conditions: additional mutation C177A; for Rate constant with Cdk2 S181C: Protein: Cdk2, cysteine position S181C, in h^-1
# T2 construct: poly-histidine; made in house; host or cells: E. coli
# Protocol: as §1, §2, §3, §4, §5, §6
# Cdk2(T182C) (C177A) = biological target: T3, Cdk2(T182C) (C177A) (Homo sapiens, UniProt P24941, C177A/T182C); experiment: Kinetic thiol consumption assay with Cdk2 mutant T182C; format: binding; design: key to Rate enhancement, Cdk2 T182C: rate constant with Cdk2 ÷ rate constant with model thiol (fold); conditions: additional mutation C177A; for Rate constant with Cdk2 T182C: Protein: Cdk2, cysteine position T182C, in h^-1
# T3 construct: poly-histidine; made in house; host or cells: E. coli
# Protocol: as §1, §2, §3, §4, §5, §6
# Cdk2(S276C) (C177A) = biological target: T4, Cdk2(S276C) (C177A) (Homo sapiens, UniProt P24941, C177A/S276C); experiment: Kinetic thiol consumption assay with Cdk2 mutant S276C; format: binding; design: key to Rate enhancement, Cdk2 S276C: rate constant with Cdk2 ÷ rate constant with model thiol (fold); conditions: additional mutation C177A; for Rate constant with Cdk2 S276C: Protein: Cdk2, cysteine position S276C, in h^-1
# T4 construct: poly-histidine; made in house; host or cells: E. coli
# Protocol: as §1, §2, §3, §4, §5, §6
# [1] = biological target: T5, human cyclin-dependent kinase 2 (Cdk2) (Homo sapiens, UniProt P24941); experiment: Kinetic thiol consumption assay with wild type Cdk2 (C177); format: binding; design: key to Rate enhancement, Cdk2 WT: k(Cdk2) divided by k(model thiol); Rate constant with Cdk2 (k(Cdk2)): unit not given here; conditions: for Rate enhancement, Cdk2 WT: no additional mutations; for Rate constant with Cdk2 WT: Protein: Cdk2, cysteine position WT, in h^-1; for Rate constant with Cdk2 (k(Cdk2)): 500 μM ligand, 5 μM thiol, phosphate buffer pH 8; for k(Cdk2)/k(GSH) rate enhancement: model thiol glutathione
# T5 construct: poly-histidine; made in house; host or cells: E. coli
# Protocol: (§7) A library of 120 acrylamides was screened against a) human cyclin-dependent kinase 2 (Cdk2, which contains one surface exposed cysteine residue—C177), prepared by cloning cDNA into the pRSETA bacterial expression vector to generate a poly-histidine tagged Cdk2 fusion that was purified from E. coli using standard techniques, and b) a model thiol (specific details are given below). The structures of these 120 acrylamides are set out in Table 1, above.
# as §1, §2, §3, §4
# Cdk2(N272C) (C177A) = biological target: T6, Cdk2(N272C) (C177A) (Homo sapiens, UniProt P24941, C177A/N272C); experiment: Kinetic thiol consumption assay with Cdk2 mutant N272C; format: binding; design: key to Rate enhancement, Cdk2 N272: rate constant with Cdk2 ÷ rate constant with model thiol (fold); conditions: for Rate enhancement, Cdk2 N272: Cdk2 N272, additional mutation C177A; for Rate constant with Cdk2 N272C: Protein: Cdk2, cysteine position N272C, additional mutation C177A, in h^-1
# T6 construct: poly-histidine; made in house; host or cells: E. coli
# Protocol: as §1, §2, §3, §4, §5, §6
# [2] = Kinetic thiol consumption assay with model thiol glutathione; format: physicochemical; design: Rate constant with glutathione (k(GSH)): unit not given here; conditions: for Rate constant with Glutathione: Protein: Glutathione, cysteine position NA, in h-1; for Rate constant with glutathione (k(GSH)): 500 μM ligand, 5 μM thiol, phosphate buffer pH 8
# Protocol: as §7, §1, §2, §3, §4
# The model thiol in Example 1 is glutathione (GSH). Hits were defined as fragments where kCdk2/kGSH>5.8 (empirically determined as 3 standard deviations over the mean).
# Cdk2(R122C) (C177A) = biological target: T7, Cdk2(R122C) (C177A) (Homo sapiens, UniProt P24941, C177A/R122C); experiment: Kinetic thiol consumption assay with Cdk2 mutant R122C; format: binding; design: key to Rate enhancement, Cdk2 R122C: rate constant with Cdk2 ÷ rate constant with model thiol (fold); conditions: additional mutation C177A; for Rate constant with Cdk2 R122C: Protein: Cdk2, cysteine position R122C, in h-1
# T7 construct: poly-histidine; made in house; host or cells: E. coli
# Protocol: as §1, §2, §3, §4, §5, §6
# Cdk2(H71C) (C177A) = biological target: T8, Cdk2(H71C) (C177A) (Homo sapiens, UniProt P24941, C177A/H71C); experiment: Kinetic thiol consumption assay with Cdk2 mutant H71C; format: binding; design: key to Rate enhancement, Cdk2 H71C: rate constant with Cdk2 ÷ rate constant with model thiol (fold); conditions: additional mutation C177A; for Rate constant with Cdk2 H71C: Protein: Cdk2, cysteine position H71C, in h^-1
# T8 construct: poly-histidine; made in house; host or cells: E. coli
# Protocol: as §1, §2, §3, §4, §5, §6
SMILES,"Rate enhancement, Cdk2 F80C (Cdk2(C177A, F80C))","Rate enhancement, Cdk2 S181C (Cdk2(S181C) (C177A))",Rate constant with Cdk2 S181C (Cdk2(S181C) (C177A)),"Rate enhancement, Cdk2 T182C (Cdk2(T182C) (C177A))",Rate constant with Cdk2 T182C (Cdk2(T182C) (C177A)),"Rate enhancement, Cdk2 S276C (Cdk2(S276C) (C177A))",Rate constant with Cdk2 S276C (Cdk2(S276C) (C177A)),"Rate enhancement, Cdk2 WT [1]",Rate constant with Cdk2 WT [1],"Rate enhancement, Cdk2 N272 (Cdk2(N272C) (C177A))",Rate constant with Cdk2 N272C (Cdk2(N272C) (C177A)),"Rate enhancement, Cdk2 R122C (Cdk2(R122C) (C177A))",Rate constant with Cdk2 R122C (Cdk2(R122C) (C177A)),"Rate enhancement, Cdk2 H71C (Cdk2(H71C) (C177A))",Rate constant with Cdk2 H71C (Cdk2(H71C) (C177A)),"Rate constant with Cdk2 F80C (Cdk2(C177A, F80C))",Rate constant with Cdk2 (k(Cdk2)) [1],k(Cdk2)/k(GSH) rate enhancement [1],Rate constant with Glutathione [2],Rate constant with glutathione (k(GSH)) [2]
CC1CN(C(=O)CCl)CC(C)O1 (stereo not shown) [EN012],0,0.067,0.01809,0.3161,0.08536,0.5904,0.1594,1.086,0.2933,0.1055,0.02849,0.02811,0.00759,0.03607,0.009738,,,,0.27,
C=CC(=O)N(C1CC1)C1CCCCC1C1CCCCC1 (stereo not shown) [CA-081/240],4.621,9.936,0.02322,8.314,0.01943,7.411,0.01732,7.599,0.01776,3.276,0.007657,0.7099,0.001659,0.9042,0.002113,0.0108,,,0.002337,
C=CC(=O)N1CCn2c(C(=O)NC3CC3)ccc2C1C (stereo not shown) [CA-040/230],0.3102,0.247,0.01059,1.268,0.05436,0.7654,0.03282,0.6915,0.02965,3.076,0.1319,0.285,0.01222,0.7334,0.03145,0.0133,,,0.04288,
O=C(CCl)N1CCCCCC1 [EN011],0,0.09796,0.01298,0.4574,0.06061,1.075,0.1424,0.6051,0.08018,0.1463,0.01938,0.02161,0.002863,0.08604,0.0114,,,,0.1325,
C=CC(=O)N1CCC2(CC1)NC(=O)C1(CCCCC1)N2 [CA-129/235],0.1819,0.2227,0.002434,0.8826,0.009647,1.682,0.01838,0.2508,0.002741,0.3936,0.004302,0.925,0.01011,0.03271,0.0003575,0.001988,,,0.01093,

# Second part, led by results:
"Rate enhancement, Cdk2 F80C (Cdk2(C177A, F80C))","Rate enhancement, Cdk2 S181C (Cdk2(S181C) (C177A))",Rate constant with Cdk2 S181C (Cdk2(S181C) (C177A)),"Rate enhancement, Cdk2 T182C (Cdk2(T182C) (C177A))",Rate constant with Cdk2 T182C (Cdk2(T182C) (C177A)),"Rate enhancement, Cdk2 S276C (Cdk2(S276C) (C177A))",Rate constant with Cdk2 S276C (Cdk2(S276C) (C177A)),"Rate enhancement, Cdk2 WT [1]",Rate constant with Cdk2 WT [1],"Rate enhancement, Cdk2 N272 (Cdk2(N272C) (C177A))",Rate constant with Cdk2 N272C (Cdk2(N272C) (C177A)),"Rate enhancement, Cdk2 R122C (Cdk2(R122C) (C177A))",Rate constant with Cdk2 R122C (Cdk2(R122C) (C177A)),"Rate enhancement, Cdk2 H71C (Cdk2(H71C) (C177A))",Rate constant with Cdk2 H71C (Cdk2(H71C) (C177A)),"Rate constant with Cdk2 F80C (Cdk2(C177A, F80C))",Rate constant with Cdk2 (k(Cdk2)) [1],k(Cdk2)/k(GSH) rate enhancement [1],SMILES,Rate constant with Glutathione [2],Rate constant with glutathione (k(GSH)) [2]
0.4785,0.6457,0.005463,6.465,0.05469,0.7322,0.006194,1.059,0.00896,0.3045,0.002576,0.319,0.002699,35.53,0.3006,0.004048,0.00508,0.9957,C=CC(=O)N1CCCC1CC1CC2CCC1C2 (stereo not shown) [CA-087],0.00846,0.0051
0,3.018,0.009074,6.867,0.02065,0.6169,0.001855,1.268,0.003813,1.56,0.004691,1.368,0.004115,0.6721,0.002021,,0.00381,1.254,C=CC(=O)N(C)C1C2CCOC2C1(C)C (stereo not shown) [CA-182],0.003007,0.00304
0.1028,1.139,0.008821,2.003,0.01551,0.9396,0.007277,0.2968,0.002299,0.3769,0.002919,0.6918,0.005358,0.1944,0.001506,0.0007964,0.0023,0.4376,C=CC(=O)N1CCN(Cc2noc(C3CC3)n2)CC1 [CA-091],0.007745,0.00525
